Data: US20210290581A1, “NEUROREGENERATION IMPROVED BY KETONE” (UNIVERSITY OF SOUTH FLORIDA, priority 2016, published 2021)

What was measured:
rat primary neurons [1] = assay: scratch assay in primary neuronal cell cultures followed for 24 hours with CytoSmart system; assay type: cell-based, Sprague Dawley rats; settings: 2 mM
Description: Ketone bodies serve as alternative fuel for the brain when glucose availability is limited. In humans, BHB is synthesized in the liver from acetoacetate, the first ketone produced in the fasting state. Its biosynthesis is catalyzed by the enzyme beta-hydroxybutyrate dehydrogenase. The effect of ketone bodies on cell regeneration in primary neuronal cell cultures was tested by using a scratch assay that was followed for 24 hours with a CYTOSMART system.
(§1) Cortical neurons from embryonic (E18) Sprague Dawley rats were isolated and cultured as described in Katnic, Guerrero et al. 2006. Briefly, excised brains were digested with 0.25% trypsin. Isolated cells were suspended in DMEM supplemented with fetal bovine serum (FBS, 10%, heat inactivated), penicillin (100 IU/ml), streptomycin ([…]) and amphotericin B1 ([…]) (Antibiotic/Antimycotic) and plated on poly-L-lysine coated coverslips. Following 24 hour incubation, the DMEM solution was replaced with Neurobasal media supplemented with B-27 (10 ml) and 0.5 mM L-glutamine. 3 week old rat primary neurons were exposed to 2 mM R,S-Sodium-3-hydroxibutyrate. The cell monolayer was scraped with a P100 pipette tip to create a scratch. Cell debris was removed by washing with culture medium. 100 snapshots were taken of the cell migration/cell regeneration into the scratch space over 24 hours by CytoSmart system.

rat primary neurons [2] = assay: immunofluorescence staining of the scratch assay (cell nuclei, Beta tubulin, synapsins); assay type: cell-based, Sprague Dawley rats; settings: 2 mM; after 24 hours; 10×, 20×, 60×; compared to control
Description: as §1
The primary neurons underwent immunofluorescence staining. This fluorescence imaging on the scratch assay (after 24 hours/3-week old primary neurons) can be seen in FIGS. 6A-6B, 7A-7B, 8A-8B, and 9A-9B. The images have been lightened for illustrative purposes. Each of these figures includes four (4) images, labeled as I-IV. […]

## CC(O)CC(=O)[O-].[Na+] (centres unmarked) [R,S-Sodium-3-hydroxibutyrate]
Rat primary neurons [1]; 24 hours, 20× (p=0.01) and 10× (p=0.0004) magnification, versus control
  DAPI stained cell nuclei in the scratch space area: significantly more DAPI stained cell nuclei
Rat primary neurons [1]; 24 hours, control about 0.9%
  increase in cell coverage per 24 hours: about 3.3%
Rat primary neurons [1]; over the 24-hour period, versus control
  cell migration and regeneration of the damaged area: more intense cell migration and regeneration of the damaged area
Rat primary neurons [2]
  cell nuclei visible around the regeneration site and in the scratch area: More cell nuclei are visible around the regeneration site
  density of synapsins and tubulin at the regeneration site: higher density of synapsins and tubulin
